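Growth conditions: 96-well plates. Treatment: test compound, 48 hours, 5 concentrations. Analysis: linear interpolation between bracketing concentrations; unreached endpoints set to highest concentration. The concentration for 50% growth inhibition is given as GI50.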 Calls of active or inactive are those of the source. Rule as the data show it: active = GI50 up to about 1.1 µM and inactive = higher.
Key:
Experiment in all cases: inhibition of tumour cell growth, NCI panel, 48 h
MDA-N = system: MDA-N
DMS-273 = system: DMS-273
XF498 = system: XF498
LXFL 529 = system: LXFL 529
SNB-78 = system: SNB-78
KM-20L2 = system: KM-20L2
DMS-114 = system: DMS-114
RXF 631 = system: RXF 631
HOP-18 = system: HOP-18

In the case of CCCCn1c(-c2ccc([N+](=O)[O-])cc2)cs/c1=N/N=C1\C(=O)Nc2ccc(Br)cc21, the GI50 (MDA-N) was 16.2 µM (inactive).

In the case of Nc1cc(Cl)cc2cc(Cl)cnc12, the GI50 (MDA-N) was > 100 µM (inactive).

For NC1(c2cc3ccccc3s2)CCCC1, the GI50 (MDA-N) was 48.9 µM (inactive).

N#CC1(C#N)C2=C(CCCC2)NC(c2ccc(Br)cc2)C1(C#N)C#N (configuration not stated) was tested, and the GI50 (MDA-N) was 4.26 µM (inactive).

With Oc1cccc(-c2ccc3c4c2O[C@H]2c5[nH]c6ccccc6c5C[C@@]5(O)[C@@H](C3)N(CC3CC3)CC[C@]425)c1 the GI50 (MDA-N) was 1.67 µM (inactive).

With CC(C(=O)O)c1ccc(-n2nnc3c(=O)[nH][nH]c(=O)c32)cc1 (configuration not stated) the GI50 (MDA-N) was > 100 µM (inactive).

For N#Cc1c(C#N)c(SSc2c(C#N)c(C#N)c(N)n2-c2ccc(F)cc2)n(-c2ccc(F)cc2)c1N, the GI50 (MDA-N) was 3.67 µM (inactive).

With C=C1C(=O)O[C@@H]2C[C@]3(C)[C@@H](C[C@H]12)[C@](C)(O)CC[C@@H]3O the GI50 (DMS-273) was 52.8 µM (inactive), the GI50 (XF498) was 36.5 µM (inactive) and the GI50 (LXFL 529) was 44 µM (inactive). The GI50 (SNB-78) was 47.8 µM (inactive), the GI50 (KM-20L2) was 38.9 µM (inactive) and the GI50 (DMS-114) was 39.2 µM (inactive). The GI50 (RXF 631) was 87.5 µM (inactive).

With Cc1cccc(C2NC(=O)c3ccccc3N2)c1 (configuration not stated) the GI50 (MDA-N) was 0.543 µM (active).

In the case of CN1N=C(c2ccncc2)OC1c1ccc(C(F)(F)F)cc1 (configuration not stated), the GI50 (MDA-N) was > 100 µM (inactive).

In the case of C=C(NC(=O)C(=C)NC(=O)c1csc(C2=NC3c4csc(n4)C4NC(=O)c5csc(n5)C(C(C)(O)C(C)O)NC(=O)C5CSC(=N5)/C(=C/C)NC(=O)C(C(C)O)NC(=O)c5csc(n5)C3(CC2)NC(=O)C(C)NC(=O)C(=C)NC(=O)C(=C)NC(=O)C(C(C)C)NC2C=Cc3c(C(C)O)cc(nc3C2O)C(=O)OC4C)n1)C(N)=O (configuration not stated), the GI50 (MDA-N) was 1.56 µM (inactive).

With Cc1nc2ccc(NCCN(C)C)c3c(=O)c4ccccc4n1c23 the GI50 (LXFL 529) was 6.56 µM (inactive), the GI50 (MDA-N) was 1.66 µM (inactive) and the GI50 (SNB-78) was 6.79 µM (inactive). For the same compound, the GI50 (HOP-18) was 3.2 µM (inactive), the GI50 (KM-20L2) was 1.99 µM (inactive) and the GI50 (DMS-114) was 5.52 µM (inactive). The GI50 (RXF 631) was 1.74 µM (inactive).

In the case of O=S(=O)(O)CCSSCCS(=O)(=O)O, the GI50 (MDA-N) was > 1000 µM (inactive).

OC(c1nc2ccccc2s1)(C(F)(F)F)C(F)(F)F was tested, and the GI50 (MDA-N) was > 100 µM (inactive).

CCC1(c2ccc(N)cc2)CCC(=O)NC1=O (configuration not stated) [AMINOGLUTETHIMIDE] was tested, and the GI50 (DMS-273) was 2560 µM (inactive), the GI50 (XF498) was 1550 µM (inactive) and the GI50 (MDA-N) was 3250 µM (inactive). The GI50 (SNB-78) was 2170 µM (inactive), the GI50 (HOP-18) was 3120 µM (inactive) and the GI50 (KM-20L2) was 3940 µM (inactive). For the same compound, the GI50 (DMS-114) was 1530 µM (inactive).

With COc1ccc(/C=N/NC(=O)c2ccc(O)c(CN(C)C)c2)cc1 the GI50 (MDA-N) was > 100 µM (inactive).

In the case of Cn1c(=O)sc2cc(C(=S)N3CCOCC3)ccc21, the GI50 (MDA-N) was > 100 µM (inactive).

ClC1=NN=C(c2c[nH]c3ccccc23)CC1NCc1ccccc1 (configuration not stated) was tested, and the GI50 (MDA-N) was > 100 µM (inactive).

With NC(=O)N/N=C1\CC2C3CC4C2C4C13 (configuration not stated) the GI50 (MDA-N) was > 100 µM (inactive).

With CCC1(O)CC(CCN(Cc2ccccc2)C(=O)OCc2ccccc2)C(OCc2ccccc2)C1O (configuration not stated) the GI50 (MDA-N) was 26.8 µM (inactive).

Cc1cc(C)c2c(n1)S(=O)(=O)N(CCCN1CCN(c3cccc(C(F)(F)F)c3)CC1)C(C(=O)c1ccc(Cl)cc1)=C2O was tested, and the GI50 (MDA-N) was 3.15 µM (inactive).

For CN(C)CCN1C(=O)c2ccccc2C1(O)c1ccc(Cl)cc1 (configuration not stated), the GI50 (MDA-N) was 79.4 µM (inactive).

With Cc1ccc2c(c1C)CC1(Cc3c(ccc4c3CCC4)C1=O)C2=O (configuration not stated) the GI50 (MDA-N) was > 100 µM (inactive).

For CC(C)=CC(=O)OC1C2C(C)C(=O)OC2C(O)C(C)C2C=CC(=O)C21C (configuration not stated), the GI50 (DMS-273) was 4.25 µM (inactive), the GI50 (XF498) was 5.08 µM (inactive) and the GI50 (SNB-78) was 3.24 µM (inactive). For the same compound, the GI50 (HOP-18) was 6.67 µM (inactive), the GI50 (KM-20L2) was 3.42 µM (inactive) and the GI50 (DMS-114) was 2.58 µM (inactive).

CC(C)CCCCCCCCCCCCC(=O)NCC(=O)NC1C(C)OC(Nc2ncnc3c2ncn3C)C(O)C1O (configuration not stated) was tested, and the GI50 (DMS-273) was 1.81 µM (inactive), the GI50 (XF498) was 3.56 µM (inactive) and the GI50 (SNB-78) was 4.72 µM (inactive). The GI50 (HOP-18) was 2.48 µM (inactive), the GI50 (KM-20L2) was 4.02 µM (inactive) and the GI50 (DMS-114) was 7.82 µM (inactive).

With CC1(c2ccc(Cl)cc2)C2C(=O)NC(=O)C1C(=O)NC2=O (configuration not stated) the GI50 (DMS-273) was > 100 µM (inactive), the GI50 (XF498) was > 100 µM (inactive) and the GI50 (LXFL 529) was > 100 µM (inactive). The GI50 (SNB-78) was > 100 µM (inactive) and the GI50 (KM-20L2) was 56.5 µM (inactive).

O=C(Nc1ccccc1)C(=O)C(C(=O)c1ccccc1F)C1OC(=O)c2ccccc21 (configuration not stated) was tested, and the GI50 (DMS-273) was 31.3 µM (inactive), the GI50 (XF498) was 20.7 µM (inactive) and the GI50 (LXFL 529) was 23.6 µM (inactive). For the same compound, the GI50 (SNB-78) was > 100 µM (inactive), the GI50 (KM-20L2) was 33.6 µM (inactive) and the GI50 (DMS-114) was 20.9 µM (inactive). For the same compound, the GI50 (RXF 631) was 31.2 µM (inactive).

With CN(CC(=O)O)c1ncc2c(n1)-c1ccccc1SC2 the GI50 (MDA-N) was > 100 µM (inactive).

In the case of Cc1cccc(NC(=O)/C=C/c2ccccc2)c1C, the GI50 (MDA-N) was > 100 µM (inactive).

For CNC(=O)OCc1nc(SC)n(C)c1COC(=O)NC, the GI50 (DMS-273) was 86.5 µM (inactive), the GI50 (XF498) was 253 µM (inactive) and the GI50 (MDA-N) was 161 µM (inactive). The GI50 (SNB-78) was 68.4 µM (inactive), the GI50 (HOP-18) was 232 µM (inactive) and the GI50 (KM-20L2) was 177 µM (inactive). For the same compound, the GI50 (DMS-114) was 80.5 µM (inactive).

C1CSCC2(COC2)CS1 was tested, and the GI50 (MDA-N) was > 100 µM (inactive).

Clc1ccc2c(Cl)nc(-c3ccccc3)nc2c1 was tested, and the GI50 (DMS-273) was 36.7 µM (inactive), the GI50 (XF498) was 3.88 µM (inactive) and the GI50 (LXFL 529) was 26.9 µM (inactive). The GI50 (SNB-78) was 11.4 µM (inactive), the GI50 (KM-20L2) was 25.6 µM (inactive) and the GI50 (DMS-114) was 18.6 µM (inactive).

For CC(=O)NC1C(OCc2ccccc2)OC(CO)C(O)C1OCC(=O)NC(C)C(=O)NC(CCC(=O)NCCCCCNc1c2ccccc2nc2cccc([N+](=O)[O-])c12)C(N)=O (configuration not stated), the GI50 (MDA-N) was < 0.01 µM (active).

Source: ChEMBL document CHEMBL1201862, “PubChem BioAssay data set” (2004)
